Results published in patent US6410564B1, “Naphthyl compounds, intermediates, processes, compositions, and methods” (Eli Lilly and Company, priority 1994, dated 2002).
Read-outs that look alike come from different tables or passages of the source.

Experiments:
[1] = system: ovariectomized (OVX) female Sprague Dawley rats; test: Serum cholesterol in OVX rats, 4-day dosing; format: in vivo, rat; conditions: oral daily for 4 days; for inhibition in vivo at 0.01 mg/kg / inhibition in vivo at 0.1 mg/kg / inhibition in vivo at 1 mg/kg / inhibition in vivo at 10 mg/kg: Rattus norvegicus, po, 96 h, read-out: Serum Cholesterol (% decrease vs. OVX)
Source text: (§1) Seventy-five day old female Sprague Dawley rats (weight range of 200 to 225 g) were obtained from Charles River Laboratories (Portage, Mich.). The animals were either bilaterally ovariectomized (OVX) or exposed to a Sham surgical procedure at Charles River Laboratories, and then shipped after one week. Upon arrival, they were housed in metal hanging cages in groups of 3 or 4 per cage and had ad libitum access to food (calcium content approximately 0.5%) and water for one week. Room temperature was maintained at 22.2°±1.7° C. with a minimum relative humidity of 40%. The photoperiod in the room was 12 hours light and 12 hours dark.
(§2) Dosing Regimen Tissue Collection. After a one week acclimation period (therefore, two weeks post-OVX) daily dosing with test compound was initiated. 17α-ethynyl estradiol or the test compound were given orally, unless otherwise stated, as a suspension in 1% carboxymethylcellulose or dissolved in 20% cyclodextrin. Animals were dosed daily for 4 days. Following the dosing regimen, animals were weighed and anesthetized with a ketamine: Xylazie (2:1, V:V) mixture and a blood sample was collected by cardiac puncture. The animals were then sacrificed by asphyxiation with CO2, the uterus was removed through a midline incision, and a wet uterine weight was determined.
Cholesterol Analysis. Blood samples were allowed to clot at room temperature for 2 hours, and serum was obtained following centrifugation for 10 minutes at 3000 rpm. Serum cholesterol was determined using a Boehringer Mannheim Diagnostics high performance cholesterol assay. Briefly the cholesterol was oxidized to cholest-4-en-3-one and hydrogen peroxide. The hydrogen peroxide was then reacted with phenol and 4-aminophenazone in the pressure of peroxidase to produce a p-quinone imine dye, which was read spectrophotemetrically at 500 nm. Cholesterol concentration was then calculated against a standard curve. The entire assay was automated using a Biomek Automated Workstation.
(§3) Data presented in Table 1 below show comparative results among ovariectomized rats, rats treated with 17α-ethynyl estradiol (EE2; an orally available form of estrogen), and rats treated with certain compounds of the present invention. […] This uterine response to estrogen is well recognized in the art.
(§4) The data presented in the Tables 1 below reflects the response of 5 to 6 rats per treatment.

[2] = system: Uterine Eosinophil Peroxidase (EPO); conditions: rat, in vivo, po
Source text: as §1, §2
Uterine Eosinophil Peroxidase (EPO) Assay. Uteri were kept at 4° C. until time of enzymatic analysis. The uteri were then homogenized in 50 volumes of 50 mM Tris Buffer (pH −8.0) containing 0.005% Triton X-100. Upon addition of 0.01% hydrogen peroxide and 10 mM O-phenylenediamine (final concentrations) in Tris buffer, increase in absorbance was monitored for one minute at 450 nm. The presence of eosonophils in the uterus is an indication of estrogenic activity of a compound. The maximal velocity of a 15 second interval was determined over the initial, linear portion of the reaction curve.
As is expressed in the below data, estrogenicity also was assessed by evaluating the adverse response to eosinophil infiltration into the uterus.
as §4

[3] = system: MCF-7 breast adenocarcinoma cells; test: MCF-7 Proliferation Assay (tritiated thymidine); format: cell-based; conditions: MCF-7 cells, 48 hours with drug, tritiated thymidine pulse 4 hours
Procedure: MCF-7 breast adenocarcinoma cells (ATCC HTB 22) were maintained in MEM (minimal essential medium, phenol red-free, Sigma, St. Louis, Mo.) supplimented with 10% fetal bovine serum (FBS) (V/V), L-glutamine ([…]), sodium pyruvate (1 mM), HEPES {(N-[2-hydroxyethyl]piperazine-N′-[2-ethanesulfonic acid]10 mM}, non-essential amino acids and bovine insulin (1 ug/mL) (maintenance medium). Ten days prior to assay, MCF-7 cells were switched to maintenance medium supplemented with 10% dextran coated charcoal stripped fetal bovine serum (DCC-FBS) assay medium) in place of 10% FBS to deplete internal stores of steroids. MCF-7 cells were removed from maintenance flasks using cell dissociation medium (Ca++/Mg++ free HBSS (phenol red-free) supplemented with 10 mM HEPES and 2 mM EDTA). Cells were washed twice with assay medium and adjusted to 80,000 cells/mL. Approximately 100 μL (8,000 cells) were added to flat-bottom microculture wells (Costar 3596) and incubated at 37° C. in a 5% CO2 humidified incubator for 48 hours to allow for cell adherence and equilibration after transfer. Serial dilutions of drugs or DMSO as a diluent control were prepared in assay medium and 50 μL transferred to triplicate microcultures followed by 50 μL assay medium for a final volume of 200 μL. After an additional 48 hours at 37° C. in a 5% CO2 humidified incubator, microcultures were pulsed with tritiated thymidine (1 uCi/well) for 4 hours. Cultures were terminated by freezing at −70° C. for 24 hours followed by thawing and harvesting of microcultures using a Skatron Semiautomatic Cell Harvester. Samples were counted by liquid scintillation using a Wallac BetaPlace β counter. Results in Table 4 below show the IC50 for certain compounds of the present invention.

[4] = system: ovariectomized (OVX) female Sprague Dawley rats; test: Osteoporosis Test Procedure: distal femur metaphysis X-ray image analysis, OVX rats, 35 days; format: in vivo, rat; conditions: mean ± SEM
Source text: as §1
Following the General Preparation Procedure, infra, the rats were treated daily for 35 days (6 rats per treatment group) and sacrificed by carbon dioxide asphyxiation on the 36th day. The 35 day time period was sufficient to allow maximal reduction in bone density, measured as described herein. At the time of sacrifice, the uteri were removed, dissected free of extraneous tissue, and the fluid contents were expelled before determination of wet weight in order to confirm estrogen deficiency associated with complete ovariectomy. […] The uteri were then placed in 10% neutral buffered formalin to allow for subsequent histological analysis.
The right femurs were excised and digitilized x-rays generated and analyzed by an image analysis program (NIH image) at the distal metaphysis. The proximal aspect of the tibiae from these animals were also scanned by quantitative computed tomography.
In accordance with the above procedures, compounds of the present invention and ethynyl estradiol (EE2) in 20% hydroxypropyl β-cyclodextrin were orally administered to test animals. Distal femur metaphysis data presented in Tables 2 and 3 below are the results of formula I compound treatments compared to intact and ovariectomized test animals. Results are reported as the mean ± the standard error of the mean.

[5] = system: ovariectomized (OVX) female Sprague Dawley rats; conditions: rat, in vivo, po, 4 days
Procedure: In the examples illustrating the methods, a post-menopausal model was used in which effects of different treatments upon circulating lipids were determined.
as §1, §2, §3, §4

[6] = female, Sprague Dawley, 0.01 mg/kg, 4 days
[7] = female, Sprague Dawley, 0.1 mg/kg, 4 days
[8] = female, Sprague Dawley, 1 mg/kg, 4 days
[9] = female, Sprague Dawley, 10 mg/kg, 4 days
[10] = Homo sapiens, MCF7, read-out: IC50
[11] = Table 2, oral daily 35 days in 20% cyclodextrin, 0.1 mg/kg, OVX control 5.5 ± 0.6, Sham 30.5 ± 4.3
[12] = Table 2, oral daily 35 days in 20% cyclodextrin, 1.0 mg/kg, OVX control 5.5 ± 0.6, Sham 30.5 ± 4.3
[13] = Table 2, oral daily 35 days in 20% cyclodextrin, 10.0 mg/kg, OVX control 5.5 ± 0.6, Sham 30.5 ± 4.3

Row | Uterine Weight (% increase vs. OVX) ([5]; 0.01 mg/kg) [%] | Uterine Weight (% increase vs. OVX) ([5]; 0.1 mg/kg) [%] | Uterine Weight (% increase vs. OVX) ([5]; 1 mg/kg) [%] | Uterine Weight (% increase vs. OVX) ([5]; 10 mg/kg) [%] | Uterine EPO (V. max) [2, 6] | Uterine EPO (V. max) [2, 7] | Uterine EPO (V. max) [2, 8] | Uterine EPO (V. max) [2, 9] | IC50 [3, 10] [nM] | Structure (SMILES) | inhibition in vivo at 0.01 mg/kg [1] [%] | inhibition in vivo at 0.1 mg/kg ([1]; dose 0.1 mg/kg) [%] | inhibition in vivo at 1 mg/kg ([1]; dose 1.0 mg/kg) [%] | inhibition in vivo at 10 mg/kg ([1]; dose 10.0 mg/kg) [%] | Distal Femur Metaphysis (X-ray Image Analysis-Gray Score) [4, 11] | Distal Femur Metaphysis (X-ray Image Analysis-Gray Score) [4, 12] | Distal Femur Metaphysis (X-ray Image Analysis-Gray Score) [4, 13] | also measured
1 | – | – | – | – | – | – | – | – | – | CCN(CC)CCOc1ccc(Cc2c(-c3ccc(O)cc3)ccc3cc(O)ccc23)cc1 [Example 24, [2-(4-hydroxyphenyl)-6-hydroxynaphthalen-1-yl][4-[2-(1-N,N-diethylamino)ethoxy]phenyl]methane] | – | – | – | – | – | – | – | Serum Cholesterol (% decrease vs. OVX) ([1]; dose 0.1 mg/kg): 69.2%; Serum Cholesterol (% decrease vs. OVX) ([1]; dose 1.0 mg/kg): 50.0%; Serum Cholesterol (% decrease vs. OVX) ([1]; dose 10.0 mg/kg): 48.4%; Uterine EPO (V. max) ([2]; 0.1 mg/kg): 13.8; Uterine EPO (V. max) ([2]; 1 mg/kg): 55.8; Uterine EPO (V. max) ([2]; 10 mg/kg): 36.3; IC50 [3]: Not active
2 | 2.4 | 24.6 | 4.1 | 2.6 | 4.5 | 4.5 | 4.8 | 4.2 | 0.1 | Cl.Oc1ccc(-c2ccc3cc(O)ccc3c2Cc2ccc(OCCN3CCCCC3)cc2)cc1 [Example 2, [2-(4-Hydroxyphenyl)-6-hydroxynaphthalen-1-yl][4-[2-(1-piperidinyl)ethoxy]phenyl]methane hydrochloride] | 34.2 | 63 | 78.1 | 58.8 | – | – | – | Distal Femur Metaphysis (X-ray Image Analysis-Gray Score) ([4]; Table 3, oral daily 35 days in 20% cyclodextrin, 0.01 mg/kg, OVX control 7.2 ± 2.2, Sham 44.7 ± 6.4): 19.6 ± 3.3; Distal Femur Metaphysis (X-ray Image Analysis-Gray Score) ([4]; Table 3, oral daily 35 days in 20% cyclodextrin, 0.1 mg/kg, OVX control 7.2 ± 2.2, Sham 44.7 ± 6.4): 25.7 ± 5.9; Distal Femur Metaphysis (X-ray Image Analysis-Gray Score) ([4]; Table 3, oral daily 35 days in 20% cyclodextrin, 1.0 mg/kg, OVX control 7.2 ± 2.2, Sham 44.7 ± 6.4): 21.5 ± 3.2; Distal Femur Metaphysis (X-ray Image Analysis-Gray Score) ([4]; Table 3, oral daily 35 days in 20% cyclodextrin, 10.0 mg/kg, OVX control 7.2 ± 2.2, Sham 44.7 ± 6.4): 30.0 ± 4.5
3 | −11.2 | 23.1 | 29.7 | 12.2 | 4.2 | 7.2 | 4.5 | 3.6 | 100 | COc1ccc(-c2ccc3cc(OC)ccc3c2Cc2ccc(OCCN3CCCCC3)cc2)cc1.Cl [Example 1, [2-(4-Methoxyphenyl)-6-methoxynaphthalen-1-yl][4-[2-(1-piperidinyl)ethoxy]phenyl]methane hydrochloride] | 42.9 | 59.9 | 75 | 63.4 | 24.7 ± 4.2 | 21.7 ± 4.7 | 21.9 ± 3.2 | –
4 | – | – | – | – | – | – | – | – | 1 | Oc1ccc(-c2ccc3cc(O)ccc3c2Cc2ccc(OCCN3CCCCCC3)cc2)cc1 [Example 27, [2-(4-Hydroxyphenyl)-6-hydroxynaphthalen-1-yl][4-[2-(1-hexamethyleneiminyl)ethoxy]phenyl]methane] | – | – | – | – | – | – | – | –
5 | 2.0 | 7.1 | 0.0 | 4.5 | 5.4 | 4.2 | 4.2 | 4.8 | 0.7 | O=C(Oc1ccc(-c2ccc3cc(OC(=O)c4ccccc4)ccc3c2Cc2ccc(OCCN3CCCCC3)cc2)cc1)c1ccccc1 [Example 3, [2-(4-Benzoyloxyphenyl)-6-benzoyloxynaphthalen-1-yl][4-[2-(1-piperidinyl)ethoxy]phenyl]methane] | 33.3 | 56.7 | 63.6 | 74.7 | 14.5 ± 3.6 | 31.4 ± 5.8 | 26.6 ± 6.3 | –
